Reference: patent US20070128217A1 (priority 2003, published 2007)

Key:
[1] = test system: control sera (pooled serum of ten healthy LUMC hospital workers; commercial negative donor pooled serum from the Dutch bloodbank); format: binding, human; parameters: Binding of Control serum LUMC to linear peptides / Binding of Control serum Blood-bank to linear peptides / Binding of Control serum LUMC to looped peptides / Binding of Control Serum Blood-Bank to Looped peptides / Binding of Control serum LUMC to linear peptides of the protein M of SARS-CoV Urbani / Binding of Control serum Blood-bank to linear peptides of the protein M of SARS-CoV Urbani / Binding of Control serum LUMC to looped peptides of the protein M of SARS-CoV Urbani / Binding of Control Serum Blood-Bank to Looped peptides of the protein M of SARS-CoV Urbani: unit not given here
[2] = test system: rabbit serum obtained by immunizing a rabbit with the SARS-CoV strain Frankfurt 1; format: binding; parameters: Binding of a rabbit serum to linear peptides / Binding of a rabbit serum to looped peptides / Rabbit serum linear peptides / Rabbit serum looped peptides / Binding of a rabbit serum to linear peptides of protein N of SARS-CoV Urbani (Rabbit serum linear peptides) / Binding of a rabbit serum to looped/cyclic peptides of protein N of SARS-CoV Urbani (Rabbit serum looped peptides): unit not given here
[3] = test system: antibodies in sera from SARS patients (sera 1a, 1b, 2, 6, 37, 62, London, SARS-yellow, SARS-green); format: binding, human; parameters: Binding of serum 6 to linear peptides of protein X1 of SARS-CoV Urbani / Binding of serum 37 to linear peptides of protein X1 of SARS-CoV Urbani / Binding of serum 6 to looped/cyclic peptide (PEPSCAN-ELISA) / Binding of serum 37 to looped/cyclic peptide (PEPSCAN-ELISA) / Binding of serum 37 to looped/cyclic peptides of protein X1 of SARS-CoV Urbani / Binding of serum 6 to linear peptides of protein X2 / Binding of serum 37 to linear peptides of protein X2 / Binding of serum 37 to looped/cyclic peptides of protein X2 of SARS-CoV Urbani / Binding of serum 6 to linear peptides of protein M of SARS-CoV Urbani / Binding of serum 37 to linear peptides of protein M of SARS-CoV Urbani / Binding of serum 6 to looped/cyclic peptides of protein M of SARS-CoV Urbani / Binding of serum 37 to looped/cyclic peptides of protein M of SARS-CoV Urbani / Binding of serum 6 to linear peptides of protein X3 of SARS-CoV Urbani / Binding of serum 37 to linear peptides of protein X3 of SARS-CoV Urbani / Binding of serum 37 to looped/cyclic peptides of protein X3 of SARS-CoV Urbani / Binding of serum 6 to linear peptides of protein X4 of SARS-CoV Urbani / Binding of serum 37 to linear peptides of protein X4 of SARS-CoV Urbani / Binding of serum 37 to looped/cyclic peptides of protein X4 of SARS-CoV Urbani / Binding of serum 6 to linear peptides of protein X5 of SARS-CoV Urbani / Binding of serum 37 to linear peptides of protein X5 of SARS-CoV Urbani / Binding of serum 37 to looped/cyclic peptides of protein X5 of SARS-CoV Urbani / Binding of serum 6 to linear peptides of protein N of SARS-CoV Urbani / Binding of serum 37 to linear peptides of protein N of SARS-CoV Urbani / Binding of serum 6 to linear peptide (PEPSCAN-ELISA) / Binding of serum 1a to looped/cyclic peptides of protein N of SARS-CoV Urbani / Binding of serum 1b to looped/cyclic peptides of protein N of SARS-CoV Urbani / Binding of serum 2 to looped/cyclic peptides of protein N of SARS-CoV Urbani / Binding of serum 6 to looped/cyclic peptides of protein N of SARS-CoV Urbani / Binding of serum 37 to looped/cyclic peptides of protein N of SARS-CoV Urbani / Binding of serum 62 to looped/cyclic peptides of protein N of SARS-CoV Urbani / Binding of serum London to looped/cyclic peptides of protein N of SARS-CoV Urbani / Binding of serum SARS-green to looped/cyclic peptides of protein N of SARS-CoV Urbani: unit not given here
[4] = test system: recombinant human anti-SARS-CoV antibody 03-018; format: binding; parameters: Binding of antibody 03-018 to linear peptides of the N protein of SARS-CoV Urbani / Binding of antibody 03-018 to looped/cyclic peptides of the N protein of SARS-CoV Urbani: unit not given here

Sequence	Binding of Control Serum Blood-Bank to Looped peptides [1]	Binding of Control serum Blood-bank to linear peptides [1]	Binding of Control serum LUMC to linear peptides [1]	Binding of Control serum LUMC to looped peptides [1]	Binding of a rabbit serum to linear peptides of protein N of SARS-CoV Urbani (Rabbit serum linear peptides) [2]	Binding of a rabbit serum to looped/cyclic peptides of protein N of SARS-CoV Urbani (Rabbit serum looped peptides) [2]	Binding of serum 1a to linear peptide (PEPSCAN-ELISA) [3]	Binding of serum 1a to looped/cyclic peptides of protein N of SARS-CoV Urbani [3]	Binding of serum 1b to linear peptide (PEPSCAN-ELISA) [3]	Binding of serum 1b to looped/cyclic peptides of protein N of SARS-CoV Urbani [3]	Binding of serum 2 to linear peptide (PEPSCAN-ELISA) [3]	Binding of serum 2 to looped/cyclic peptides of protein N of SARS-CoV Urbani [3]	Binding of serum 6 to looped/cyclic peptides of protein N of SARS-CoV Urbani [3]	Binding of serum 37 to looped/cyclic peptides of protein N of SARS-CoV Urbani [3]	Binding of serum 62 to looped/cyclic peptides of protein N of SARS-CoV Urbani [3]	Binding of serum London to looped/cyclic peptides of protein N of SARS-CoV Urbani [3]	Binding of serum SARS-green to looped/cyclic peptides of protein N of SARS-CoV Urbani [3]	Binding of serum SARS-yellow to looped/cyclic peptides of protein N of SARS-CoV Urbani [3]	Binding of antibody 03-018 to linear peptides of the N protein of SARS-CoV Urbani [4]	Binding of antibody 03-018 to looped/cyclic peptides of the N protein of SARS-CoV Urbani [4]	further results
RGGSQASSRSSSRSR	0.4	0.8	0.8	0.6	0.3	0.7	0.3	0.2	0.1	0.2	0.3	0.4	0.3	0.2	0.1	0.1	0.2	0.3	0.1	0.1	Binding of serum 6 to linear peptide (PEPSCAN-ELISA) [3]: 0.4; Binding of serum 37 to linear peptide (PEPSCAN-ELISA) [3]: 0.7; Binding of serum 62 to linear peptide (PEPSCAN-ELISA) [3]: 0.7; Binding of serum London to linear peptide (PEPSCAN-ELISA) [3]: 0.5; Binding of serum SARS-green to linear peptide (PEPSCAN-ELISA) [3]: 0.3; Binding of serum SARS-yellow to linear peptide (PEPSCAN-ELISA) [3]: 0.7
RGNSRNSTPGSSRGN	0.6	0.8	0.6	0.6	0.2	0.7	0.7	0.8	0.4	0.6	0.2	0.4	0.4	0.6	0.5	0.4	0.3	0.5	0.1	0.2	Binding of serum 6 to linear peptide (PEPSCAN-ELISA) [3]: 0.2; Binding of serum 37 to linear peptide (PEPSCAN-ELISA) [3]: 0.7; Binding of serum 62 to linear peptide (PEPSCAN-ELISA) [3]: 0.7; Binding of serum London to linear peptide (PEPSCAN-ELISA) [3]: 0.4; Binding of serum SARS-green to linear peptide (PEPSCAN-ELISA) [3]: 0.2; Binding of serum SARS-yellow to linear peptide (PEPSCAN-ELISA) [3]: 0.8
RGPEQTQGNFGDQDL	0.4	0.7	0.7	0.6	0.2	0.3		0.4		0.4		0.4	0.2	0.6	0.5	0.4	0.6	0.6	0.1	0.2	Recognition of the peptide by sera of SARS-CoV infected individuals, and form (linear, looped/cyclic) in which it is recognized [3]: recognized in linear form
RGQGVPINTNSGPDD	0.4	0.5	0.5	0.4	0.1	0.0		0.2		0.1		0.2	0.1	0.3	0.2	0.2	0.2	0.0	0.1	0.2	Binding of serum 1a to linear peptides of protein N of SARS-CoV Urbani [3]: 0.2; Binding of serum 1b to linear peptides of protein N of SARS-CoV Urbani [3]: 0.1; Binding of serum 2 to linear peptides of protein N of SARS-CoV Urbani [3]: 0.1; Binding of serum 6 to linear peptides of protein N of SARS-CoV Urbani [3]: 0.1; Binding of serum 37 to linear peptides of protein N of SARS-CoV Urbani [3]: 0.3; Binding of serum 62 to linear peptides of protein N of SARS-CoV Urbani [3]: 0.4; Binding of serum London to linear peptides of protein N of SARS-CoV Urbani [3]: 0.4; Binding of serum SARS-green to linear peptides of protein N of SARS-CoV Urbani [3]: 0.4; Binding of serum SARS-yellow to linear peptides of protein N of SARS-CoV Urbani [3]: 0.6
